Test results reported in patent US8993630B2, “Substituted sulphonamido phenoxybenzamides” (Bayer Intellectual Property GmbH, priority 2008, dated 2015).
pIC50: −log10 of the molar value.

Experiments:
MEK1 = biological target: T1, MEK1 (Homo sapiens, UniProt Q02750); assay: MEK1 activation kinase assay (Cot1/GST-MEK1 HTRF); assay type: biochemical; conditions: GST-MEK1 substrate, read-out: IC50, inhibition of MEK1 activation
T1 construct: purchased Millipore 14-420 (GST-MEK1); 14-703 (Cot1); host or cells: Cot1: insect cells (SF21)
T1 sequence (Q02750 whole entry): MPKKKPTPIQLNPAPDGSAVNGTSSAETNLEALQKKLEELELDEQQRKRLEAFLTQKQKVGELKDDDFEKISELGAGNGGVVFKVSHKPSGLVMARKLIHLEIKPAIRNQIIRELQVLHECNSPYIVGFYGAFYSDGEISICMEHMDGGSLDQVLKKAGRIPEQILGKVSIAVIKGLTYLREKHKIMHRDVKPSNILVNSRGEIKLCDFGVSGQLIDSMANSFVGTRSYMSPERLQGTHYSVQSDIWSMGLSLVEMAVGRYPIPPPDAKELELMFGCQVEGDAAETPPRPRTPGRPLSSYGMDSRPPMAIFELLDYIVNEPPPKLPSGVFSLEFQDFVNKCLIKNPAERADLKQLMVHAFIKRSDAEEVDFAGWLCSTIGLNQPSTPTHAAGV
Description: The kinase Cot1 activates MEK1 by phosphorylating its activation loop. The inhibitory activity of compounds of the present invention on this activation of MEK1 was quantified employing the HTRF assay described in the following paragraphs.
N-terminally His6-tagged recombinant kinase domain of the human Cot1 (amino acids 30-397, purchased from Millipore, cat. no 14-703) expressed in insect cells (SF21) and purified by Ni-NTA affinity chromatography was used as kinase. As substrate for the kinase reaction the unactive C-terminally His6-tagged GST-MEK1 fusion protein (Millipore cat. no 14-420) was used.
For the assay 50 nl of a 100fold concentrated solution of the test compound in DMSO was pipetted into a black low volume 384well microtiter plate (Greiner Bio-One, Frickenhausen, Germany), 3 μl of a solution of 24 nM GST-MEK1 and 166.7 μM adenosine-tri-phosphate (ATP) in assay buffer [50 mM Tris/HCl pH 7.5, 10 mM MgCl2, 2 mM dithiothreitol, 0.01% (v/v) Igepal CA 630 (Sigma), 5 mM β-phospho-glycerol] were added and the mixture was incubated for 10 min at 22° C. to allow pre-binding of the test compounds to the GST-MEK1 before the start of the kinase reaction. Then the kinase reaction was started by the addition of 2 μl of a solution of Cot1 in assay buffer and the resulting mixture was incubated for a reaction time of 20 min at 22° C. The concentration of Cot1 in the assay was adjusted depending of the activity of the enzyme lot and was chosen appropriate to have the assay in the linear range, typical enzyme concentrations were in the range of about 2 ng/μl (final conc. in the 5 μl assay volume). The reaction was stopped by the addition of 5 μl of a solution of HTRF detection reagents (13 nM anti GST-XL665 [# 61GSTXLB, Fa. Cis Biointernational, Marcoule, France], 1 nM Eu-cryptate labelled anti-phospho-MEK 1/2 (Ser217/221) [#61P17KAZ, Fa. Cis Biointernational],) in an aqueous EDTA-solution (100 mM EDTA, 500 mM KF, 0.2% (w/v) bovine serum albumin in 100 mM HEPES/NaOH pH 7.5).
The resulting mixture was incubated 2 h at 22° C. to allow the binding of the phosphorylated GST-MEK1 to the anti-GST-XL665 and the Eu-cryptate labelled anti-phospho-MEK 1/2 antibody. Subsequently the amount of Ser217/Ser221-phosphorylated substrate was evaluated by measurement of the resonance energy transfer from the Eu-Cryptate-labelled anti-phospho-MEK antibody to the anti-GST-XL665. Therefore, the fluorescence emissions at 620 nm and 665 nm after excitation at 350 nm was measured in a HTRF reader, e.g. a Rubystar (BMG Labtechnologies, Offenburg, Germany) or a Viewlux (Perkin-Elmer). The ratio of the emissions at 665 nm and at […] was taken as the measure for the amount of phosphorylated substrate. […]

A375 cells = assay: A375 proliferation crystal violet (CV) assay; assay type: cell-based; conditions: Homo sapiens, A-375, 96 h, 4 days, crystal violet staining
Method: Cultivated human A375 cells were plated out in a density of 1500 cells/measurement point in 200 μl of growth medium (DMEM/HAMS F12 (Biochrom; FG4815) with 10% FBS and 2 mM Glutamine) in a 96-well multititer plate. After 24 hours, the cells from a plate (zero plate) were stained with crystal violet (see below), while the medium in the other plates was replaced by fresh culture medium (200 μl) to which the test substances had been added in various concentrations (0 μM, and in the range 0.3 nM -30 μM; the final concentration of the solvent dimethyl sulphoxide was 0.5%). The cells were incubated in the presence of the test substances for 4 days. The cell proliferation was determined by staining the cells with crystal violet: the cells were fixed by adding 20 μl/measurement point of an 11% glutaraldehyde solution at room temperature for 15 min. After the fixed cells had been washed three times with water, the plates were dried at room temperature. […] The dye was dissolved by adding 100 μl/measurement point of a 10% acetic acid solution, and the extinction was determined by photometry at a wavelength of 595 nm. The percentage change in cell growth was calculated by normalizing the measurements to the extinctions of the zero point plate (=0%) and the extinction of the untreated (0 μM) cells (=100%). The IC50 values were determined by means of a 4-parameter fit using the company's own software.

MEK1/2 = conditions: cited from earlier work
colon cancer = conditions: oral treatment, mouse models; cited from earlier work

| Structure (SMILES) | pIC50 (MEK1) | pIC50 (A375 cells) | IC50 (MEK1/2) | colon cancer growth in vivo (colon cancer) |
| --- | --- | --- | --- | --- |
| CCS(=O)(=O)Nc1cccc(Oc2cc(F)cc(Nc3ccc(I)cc3F)c2C(N)=O)c1 [Example Compound 1.1, 2-(3-ethanesulfonylamino-phenoxy)-4-fluoro-6-(2-fluoro-4-iodo-phenylamino)-benzamide] | > 6.52 | > 7.00 |  |  |
| CC(C)S(=O)(=O)Nc1cccc(Oc2cc(F)cc(Nc3ccc(I)cc3F)c2C(N)=O)c1 [Example Compound 1.2, 4-fluoro-2-(2-fluoro-4-iodo-phenylamino)-6-[3-(propane-2-sulfonylamino)-phenoxy]-benzamide] | > 6.52 | > 7.00 |  |  |
| CC(C)S(=O)(=O)Nc1cncc(Oc2cc(F)cc(Nc3ccc(I)cc3F)c2C(N)=O)c1 [Example Compound 2.1, 4-fluoro-2-(2-fluoro-4-iodo-phenylamino)-6-[5-(propane-2-sulfonylamino)-pyridin-3-yloxy]-benzamide] | > 6.52 |  |  |  |
| CCS(=O)(=O)Nc1cccc(COc2cc(F)cc(Nc3ccc(I)cc3F)c2C(N)=O)c1 [Example Compound 3.1, 2-(3-ethanesulfonylamino-benzyloxy)-4-fluoro-6-(2-fluoro-4-iodo-phenylamino)-benzamide] | > 6.52 |  |  |  |
| O=C(NOCC1CC1)c1ccc(F)c(F)c1Nc1ccc(I)cc1Cl [PD184352] |  |  | low nanomolar range | inhibit colon cancer growth in vivo in mouse models |
